Data published in paper PMC9230201, “Sustained Consumption of a Decaffeinated Green Coffee Nutraceutical Has Limited Effects on Phenolic Metabolism and Bioavailability in Overweight/Obese Subjects” (Nutrients, 2022).

Test: Urinary excretion of phenolic metabolites after intake of the GCPE nutraceutical
Conditions: for Cumulative urinary excretion, Total 0–24 h / Urinary excretion: urine; for Cumulative urinary excretion, Total 0–24 h: mean ± SEM, n = 9
Description: Participants attended the Human Nutrition Unit (HNU) at the Institute of Food Science, Technology and Nutrition (ICTAN-CSIC) on two consecutive days at the beginning of the intervention (week 0) and also on two consecutive days at the end of the study, after consuming daily two doses of the GCPE nutraceutical, providing 600 mg/d phenols, during two months (week 8). […] A licensed health care professional placed an intravenous catheter in the subjects′ nondominant arm and collected a fasting blood sample (baseline, 0 h). Then, subjects drank the soluble GCPE nutraceutical dissolved in 200 mL of water. […] On the sampling days, volunteers remained at the HNU, where a (poly)phenol-free diet was provided. Half an hour after consuming the nutraceutical, volunteers ate a breakfast consisting of ham, cheese, white bread, and a yogurt. Lunch (paella, bread, and yogurt) and an afternoon snack (muffin and yogurt) were eaten 5 and 9 h, respectively, after consuming the nutraceutical. Water and isotonic beverages were freely available. […] The same protocol was followed during visits at the end of the 8-week intervention. On each occasion, two days before each visit to the HNU, subjects consumed a low (poly)phenol diet free of foods containing hydroxycinnamates such as coffee, herbal teas, red wine, artichokes, whole grain cereals, vegetables, fruits and fruit juices, and dried fruits. Only banana, watermelon, cantaloupes, and potatoes were allowed.
Blood samples were immediately centrifuged (10 min, 3000 rpm, 4 °C) to obtain plasma. […] All biological samples were stored at −80 °C until analysis.
To extract plasma metabolites, 10 µL of 50% (v/v) aqueous formic acid, and 900 µL cold acetonitrile containing 50 µL of 10% (w/v) ascorbic acid were added to 400 µL defrosted plasma. Samples were vortexed and centrifuged (14,000 rpm, 10 min, 4 °C), repeating the extraction and combining the two supernatants, which were reduced to dryness under nitrogen [13]. Dried samples were resuspended in 150 µL of 0.1% aqueous formic acid (containing 10% acetonitrile acidified with 0.1% formic acid), centrifuged (15 min, 14,000 rpm, 4 °C), and the supernatant collected. Urine samples were diluted 1:1 with Milli-Q water and centrifuged (14,000 rpm, 20 min, 4 °C) prior to analysis. Phosphate-buffered saline (3 mL) was added to a representative 300 mg sample of thawed feces, homogenized in an ultrasound bath during 10 min, centrifuged (14,000 rpm, 20 min, 4 °C), and the supernatants collected.
Mobile phase A was 0.1% formic acid in Milli-Q water, and mobile phase B was acetonitrile containing 0.1% formic acid at a 0.3 mL/min flow rate. […] Metabolites were identified based on their retention time using authentic standards when possible. […] Urine concentration of excreted metabolites was normalized to the total volume excreted in each studied interval.
Plasma (30 µL), urine (5 µL) and fecal extracts (5 µL) were filtered through 0.45 µm
cellulose-acetate membrane filters and injected into an Agilent 1200 series LC system
ESI-Jet Stream Technology (Agilent Technologies). A reverse-phase Ascentis Express
C18 (15 cm x 3 mm, 2.7 µm) column (Sigma-Aldrich Quimica, Madrid), preceded by a
phase A was 0.1% formic acid in Milli-Q water, and mobile phase B was acetonitrile
containing 0.1% formic acid at a 0.3 mL/min flow rate. The gradient started with 10% B
at 0 min, 30% B at 10 min, 40% B at 15 min, reaching 50% B at 20 min. The starting
gradient was then re-established in 2 min and maintained for 8 min to re-equilibrate the

| Compound | Cumulative urinary excretion, Total 0–24 h (week 0) | Cumulative urinary excretion, Total 0–24 h (week 8) | Amount excreted in urine, 0- 3 h (week 0, interval 0–3 h) | Amount excreted in urine, 3-6 h (week 0, interval 3–6 h) | Amount excreted in urine, 6-9 h (week 0, interval 6–9 h) | Amount excreted in urine, 9-11 h (week 0, interval 9–11 h) | Amount excreted in urine, 0- 3 h (week 8, interval 0–3 h) | Amount excreted in urine, 3-6 h (week 8, interval 3–6 h) | Amount excreted in urine, 6-9 h (week 8, interval 6–9 h) | Amount excreted in urine, 9-11 h (week 8, interval 9–11 h) | Urinary excretion (week 0) | Urinary excretion (week 8) | Amount excreted in urine, 11-24 h (week 0, interval 11–24 h) | Amount excreted in urine, 11-24 h (week 8, interval 11–24 h) |
| --- | --- | --- | --- | --- | --- | --- | --- | --- | --- | --- | --- | --- | --- | --- |
| COc1cc(CCC(=O)OC2CC(O)(C(=O)O)CC(O)C2O)ccc1O (stereo not shown) [3-Dihydroferuloylquinic acid] | 0.3 ± 0.1 µmol | 0.5 ± 0.07 µmol | 0.05 ± 0.01 µmol | 0.034 ± 0.006 µmol | 0.029 ± 0.006 µmol | 0.019 ± 0.005 µmol | 0.11 ± 0.02 µmol | 0.062 ± 0.008 µmol | 0.08 ± 0.01 µmol | 0.08 ± 0.02 µmol |  |  | 0.16 ± 0.09 µmol | 0.14 ± 0.02 µmol |
| COc1cc(CCC(=O)OC2C(O)CC(O)(C(=O)O)CC2O)ccc1O (stereo not shown) [4-Dihydroferuloylquinic acid] | 0.06 ± 0.02 µmol | 0.05 ± 0.02 µmol | 0.011 ± 0.004 µmol | 0.008 ± 0.003 µmol | 0.013 ± 0.005 µmol | 0.005 ± 0.003 µmol | 0.015 ± 0.008 µmol |  | 0.011 ± 0.007 µmol | 0.003 ± 0.002 µmol |  |  | 0.019 ± 0.009 µmol | 0.009 ± 0.005 µmol |
| COc1cc(CCC(=O)OC2CC(O)(C(=O)O)CC(O)C2O)ccc1O (stereo not shown) [5-Dihydroferuloylquinic acid] | 0.3 ± 0.1 µmol | 0.18 ± 0.07 µmol | 0.12 ± 0.08 µmol | 0.023 ± 0.004 µmol | 0.027 ± 0.009 µmol | 0.013 ± 0.004 µmol | 0.08 ± 0.04 µmol | 0.021 ± 0.008 µmol | 0.03 ± 0.02 µmol | 0.008 ± 0.003 µmol |  |  | 0.1 ± 0.04 µmol | 0.04 ± 0.02 µmol |
| O=C(O)/C=C/c1ccc(O)c(OS(=O)(=O)O)c1 [CA-3′-sulfate, 4′Hydroxycinnamic acid-3′-sulfate] | 3.7 ± 0.5 µmol | 4.4 ± 0.8 µmol | 1.2 ± 0.3 µmol | 0.7 ± 0.2 µmol | 0.8 ± 0.2 µmol | 0.21 ± 0.06 µmol | 1.2 ± 0.2 µmol | 0.6 ± 0.1 µmol | 0.9 ± 0.3 µmol | 0.7 ± 0.3 µmol |  |  | 0.9 ± 0.2 µmol | 1 ± 0.3 µmol |
| O=C(O)CCc1ccc(O)c(O[C@@H]2O[C@H](C(=O)O)[C@@H](O)[C@H](O)[C@H]2O)c1 [DHCA-3′-glucuronide, 3-(4′-Hydroxyphenyl)propanoic acid-3′-glucuronide] | 0.6 ± 0.2 µmol | 0.5 ± 0.1 µmol | 0.09 ± 0.03 µmol | 0.07 ± 0.02 µmol | 0.08 ± 0.04 µmol | 0.04 ± 0.02 µmol | 0.11 ± 0.04 µmol | 0.06 ± 0.02 µmol | 0.08 ± 0.02 µmol |  |  |  | 0.3 ± 0.09 µmol | 0.2 ± 0.06 µmol |
| O=C(O)CCc1ccc(O)c(OS(=O)(=O)O)c1 [DHCA-3′-sulfate, 3-(4′-Hydroxyphenyl)propanoic acid-3′-sulfate] | 9 ± 2 µmol | 9 ± 3 µmol | 0.32 ± 0.07 µmol | 0.26 ± 0.07 µmol | 2.5 ± 0.9 µmol | 2 ± 0.7 µmol | 0.7 ± 0.2 µmol | 0.6 ± 0.2 µmol | 2.5 ± 0.6 µmol | 3 ± 1 µmol |  |  | 4 ± 1 µmol | 2 ± 1 µmol |
| O=C(O)CCc1ccc(O[C@@H]2O[C@H](C(=O)O)[C@@H](O)[C@H](O)[C@H]2O)cc1 [DHCoA-4′-glucuronide, 3-(Phenyl)propanoic acid-4′-glucuronide] | 2.1 ± 0.3 µmol | 1.9 ± 0.3 µmol | 0.17 ± 0.06 µmol | 0.1 ± 0.03 µmol | 0.26 ± 0.09 µmol | 0.28 ± 0.07 µmol | 0.23 ± 0.09 µmol | 0.16 ± 0.05 µmol | 0.56 ± 0.2 µmol | 0.4 ± 0.1 µmol |  |  | 1.3 ± 0.2 µmol | 1 ± 0.1 µmol |
| O=C(O)CCc1ccc(OS(=O)(=O)O)cc1 [DHCoA-4′-sulfate, 3-(Phenyl)propanoic acid-4′-sulfate] | 21 ± 6 µmol | 21 ± 4 µmol | 0.9 ± 0.4 µmol | 0.7 ± 0.1 µmol | 3 ± 1 µmol | 3 ± 1 µmol | 2 ± 0.8 µmol | 1.5 ± 0.5 µmol | 5 ± 2 µmol | 5 ± 2 µmol |  |  | 12 ± 4 µmol | 7 ± 3 µmol |
| COc1ccc(/C=C/C(=O)NCC(=O)O)cc1O [IsoFeruloylglicine] | 0.44 ± 0.04 µmol | 0.6 ± 0.1 µmol | 0.04 ± 0.01 µmol | 0.035 ± 0.009 µmol | 0.08 ± 0.02 µmol | 0.11 ± 0.01 µmol | 0.13 ± 0.05 µmol | 0.1 ± 0.02 µmol | 0.12 ± 0.04 µmol | 0.06 ± 0.02 µmol |  |  | 0.16 ± 0.03 µmol | 0.17 ± 0.05 µmol |
| COc1ccc(C=CC(=O)O)cc1O[C@@H]1O[C@H](C(=O)O)[C@@H](O)[C@H](O)[C@H]1O [iFA-3′-glucuronide, 4′-Methoxycinnamic acid-3′-glucuronide] | 4.4 ± 0.5 µmol | 6 ± 1 µmol | 0.9 ± 0.2 µmol | 0.8 ± 0.2 µmol | 1.1 ± 0.3 µmol | 0.49 ± 0.09 µmol | 1.4 ± 0.3 µmol | 0.9 ± 0.2 µmol | 1.7 ± 0.3 µmol | 1 ± 0.4 µmol |  |  | 1.1 ± 0.2 µmol | 1.1 ± 0.3 µmol |
| COc1ccc(C=CC(=O)O)cc1OS(=O)(=O)O [iFA-3′-sulfate, 4′-Methoxycinnamic acid-3′-sulfate] | 1.1 ± 0.3 µmol | 2.1 ± 0.9 µmol | 0.4 ± 0.1 µmol | 0.07 ± 0.04 µmol | 0.24 ± 0.08 µmol | 0.09 ± 0.03 µmol | 0.34 ± 0.07 µmol | 0.1 ± 0.03 µmol | 0.32 ± 0.06 µmol | 0.3 ± 0.1 µmol |  |  | 0.4 ± 0.1 µmol | 1 ± 0.7 µmol |

Now from value to molecule:

| Cumulative urinary excretion, Total 0–24 h (week 0) | Cumulative urinary excretion, Total 0–24 h (week 8) | Amount excreted in urine, 0- 3 h (week 0, interval 0–3 h) | Amount excreted in urine, 3-6 h (week 0, interval 3–6 h) | Amount excreted in urine, 6-9 h (week 0, interval 6–9 h) | Amount excreted in urine, 9-11 h (week 0, interval 9–11 h) | Amount excreted in urine, 0- 3 h (week 8, interval 0–3 h) | Amount excreted in urine, 3-6 h (week 8, interval 3–6 h) | Amount excreted in urine, 6-9 h (week 8, interval 6–9 h) | Amount excreted in urine, 9-11 h (week 8, interval 9–11 h) | Urinary excretion (week 0) | Urinary excretion (week 8) | Amount excreted in urine, 11-24 h (week 0, interval 11–24 h) | Amount excreted in urine, 11-24 h (week 8, interval 11–24 h) | Compound |
| --- | --- | --- | --- | --- | --- | --- | --- | --- | --- | --- | --- | --- | --- | --- |
| 0.21 ± 0.05 µmol | 0.18 ± 0.03 µmol | 0.11 ± 0.02 µmol | 0.08 ± 0.03 µmol | 0.022 ± 0.009 µmol | 0.003 ± 0.002 µmol | 0.1 ± 0.02 µmol | 0.045 ± 0.008 µmol | 0.028 ± 0.007 µmol | 0.008 ± 0.005 µmol |  |  |  |  | O=C(/C=C/c1ccc(O)c(O)c1)O[C@@H]1C[C@](O)(C(=O)O)C[C@@H](O)[C@H]1O [3-Caffeoylquinic acid] |
| 0.35 ± 0.07 µmol | 0.27 ± 0.08 µmol | 0.06 ± 0.02 µmol | 0.033 ± 0.005 µmol | 0.05 ± 0.02 µmol | 0.04 ± 0.01 µmol | 0.025 ± 0.007 µmol | 0.019 ± 0.005 µmol | 0.04 ± 0.01 µmol | 0.03 ± 0.01 µmol | 0.35 µmol/24 h | 0.27 µmol/24 h | 0.17 ± 0.04 µmol | 0.15 ± 0.06 µmol | O=C(CCc1ccc(O)c(O)c1)OC1CC(O)(C(=O)O)CC(O)C1O (stereo not shown) [3-Dihydrocaffeoylquinic acid] |
| 0.13 ± 0.07 µmol | 0.15 ± 0.07 µmol |  |  | 0.03 ± 0.02 µmol | 0.05 ± 0.04 µmol | 0.01 ± 0.01 µmol | 0.008 ± 0.005 µmol | 0.06 ± 0.03 µmol | 0.05 ± 0.03 µmol |  |  | 0.05 ± 0.02 µmol | 0.02 ± 0.01 µmol | O=C(/C=C/c1ccc(O)c(O)c1)OC1[C@H](O)CC(O)(C(=O)O)C[C@H]1O (stereo partly shown) [4-Caffeoylquinic acid] |
| 0.06 ± 0.02 µmol | 0.04 ± 0.02 µmol | 0.011 ± 0.004 µmol | 0.005 ± 0.002 µmol | 0.005 ± 0.002 µmol | 0.006 ± 0.002 µmol | 0.008 ± 0.004 µmol | 0.003 ± 0.002 µmol | 0.004 ± 0.002 µmol | 0.004 ± 0.003 µmol |  |  | 0.036 ± 0.008 µmol | 0.02 ± 0.01 µmol | O=C(CCc1ccc(O)c(O)c1)OC1C(O)CC(O)(C(=O)O)CC1O (stereo not shown) [4-Dihydrocaffeoylquinic acid] |
| 0.33 ± 0.06 µmol | 0.33 ± 0.04 µmol | 0.18 ± 0.04 µmol | 0.12 ± 0.04 µmol | 0.03 ± 0.01 µmol | 0.004 ± 0.002 µmol | 0.18 ± 0.04 µmol | 0.08 ± 0.01 µmol | 0.033 ± 0.008 µmol | 0.009 ± 0.007 µmol |  |  |  | 0.006 ± 0.006 µmol | O=C(/C=C/c1ccc(O)c(O)c1)O[C@@H]1C[C@@](O)(C(=O)O)C[C@@H](O)[C@@H]1O [5-Caffeoylquinic acid] |
